This passage reports IC50 and EC (2-fold) results from patent US11993574B2, “Pyrazole and imidazole compounds for inhibition of IL-17 and RORgamma” (REATA PHARMACEUTICALS, INC., priority 2018, dated 2024).

Common to all, as to assay type: cell-based
Experiment [1] addresses T1, Human RAR-related Orphan Receptor Gamma (RORγ) (Homo sapiens, UniProt P51449).
T1 sequence (P51449 269-508 limits assumed): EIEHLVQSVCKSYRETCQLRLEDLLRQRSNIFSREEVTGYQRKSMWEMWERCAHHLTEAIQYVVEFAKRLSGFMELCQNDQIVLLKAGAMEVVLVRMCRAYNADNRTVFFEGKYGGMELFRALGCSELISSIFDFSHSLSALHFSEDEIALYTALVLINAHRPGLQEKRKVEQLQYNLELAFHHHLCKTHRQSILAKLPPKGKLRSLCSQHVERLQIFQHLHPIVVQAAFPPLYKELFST
The experiment in a line: RORγ assay (GAL4-RORγ hybrid luciferase reporter, Indigo Biosciences). The following applies: inverse-agonist activity, GAL4-RORγ reporter cells, 23 hours. The method, boiled down:
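[…]engineered human reporter cell line expressing GAL4-DBD/RORγ-LBD hybrid with GAL4-UAS luciferase; constitutive activity measured as inverse agonism. Cells treated with compound (7.8-2000 nM) for 23 h at 37 °C; luminescence normalized to DMSO, IC50 by variable-slope fit, with parallel viability readout to flag non-specific inhibition.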

A further experiment concerns IL-17A. Nature of the experiment: IL-17 release from differentiated primary human T-cells (IL-17A HTRF assay). As to conditions: primary human CD4+ T cells differentiated into Th17 cells, 45-hour incubation, IL-17A in supernatant; read-out: hIL17 IC50. Put shortly: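 Primary human CD4+ T cells (~2×10^5/well) given compound (2–500 or 4–1000 nM, 0.1% DMSO), CD3/CD28-activated and Th17-differentiated (TGF-β, IL-6, IL-23, IL-1β) for 45 h at 37° C. Supernatant IL-17A by HTRF against standard curve, normalized to vehicle; IC50 by variable-slope regression, with parallel CyQuant viability.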

For experiment [2], the system named is Nrf2 transcription factor. Nature of the experiment: AREc32 luciferase reporter assay. The following applies: Homo sapiens; AREc32 cells, 19 hours; concentration required to increase GST ARE luciferase reporter activity by 2-fold; read-out: NRF2 ARE 2-Fold (EC2×). The method, boiled down: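 AREc32 cells (MCF-7 with firefly luciferase under eight rat GSTA2 ARE copies) treated 19 h with compound (0.4-200 nM or 3.9-2000 nM) in triplicate. Luminescence normalized to DMSO as fold-induction, capped at 50-fold. EC2× = concentration giving 2-fold reporter increase, interpolated from variable-slope fit.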

In the case of `C[C@H]1C(=O)C(C#N)=C[C@@]2(C)c3nn(-c4ccccc4)c(-c4ccccc4)c3CC[C@H]12` [T115], the values for the IC50 (in experiment [1]; in the experiment with IL-17A) were 77 nM and 287 nM, respectively. Also, the EC (2-fold) in experiment [2] worked out at 0.466 µM.

As for `CC(C)c1ncc(-c2nc3c(n2-c2cccc(F)c2)CC[C@@H]2[C@@H](C)C(=O)C(C#N)=C[C@@]32C)cn1` [T131], the IC50 was 170 nM in experiment [1] and 138 nM in the experiment on IL-17A. Also, the EC (2-fold) in experiment [2] was determined as 0.767 µM.

`C[C@H]1C(=O)C(C#N)=C[C@@]2(C)c3c(c(-c4ccccc4)nn3-c3ccc(-c4ccc(CO)cc4)cc3)CC[C@H]12` [T42]: the IC50 came to 33 nM in experiment [1] and 35 nM in the experiment with IL-17A. In experiment [2], the EC (2-fold) worked out at 0.13 µM.

Regarding `CC(C)c1ccc(-c2nc3c(n2CCO)CC[C@@H]2[C@@H](C)C(=O)C(C#N)=C[C@@]32C)cc1` [T172], the figures for the IC50 (in experiment [1]; with IL-17A) were 178 nM and above 500 nM, respectively. The EC (2-fold) in experiment [2] is above 2 µM.

As for `C[C@H]1C(=O)C(C#N)=C[C@@]2(C)c3c(c(-c4cccnc4)nn3-c3ccc(-c4cncc(F)c4)cc3)CC[C@H]12` [T103], the IC50 was 47 nM in experiment [1] and 31 nM in the experiment with IL-17A. The EC (2-fold) in experiment [2] was found to be 0.365 µM.

Regarding `C[C@H]1C(=O)C(C#N)=C[C@@]2(C)c3c(c(-c4ccccc4)nn3-c3ccc(Cl)cc3)CC[C@H]12` [T13], the IC50 in experiment [1] came to 129 nM; in the experiment with IL-17A it was 96 nM. The EC (2-fold) in experiment [2] is 0.274 µM.

With `CC(C)c1cccc(-c2nn(-c3ccc(-c4ccccc4)cc3)c3c2CC[C@@H]2[C@@H](C)C(=O)C(C#N)=C[C@@]32C)c1` [T71], the concentration for half-maximal inhibition (IC50) in experiment [1] came to 294 nM; with IL-17A, 9 nM. Also, the EC (2-fold) in experiment [2] is 0.257 µM.

Consider `C[C@H]1C(=O)C(C#N)=C[C@@]2(C)c3nc(-c4ccnc(C5CC5)c4)n(-c4cccc(F)c4)c3CC[C@H]12` [T144], for which the IC50 in experiment [1] turned out to be 173 nM; in the experiment with IL-17A it was 207 nM. Further, in experiment [2], the EC (2-fold) was 1.12 µM.

As to `C[C@H]1C(=O)C(C#N)=C[C@@]2(C)c3c(c(-c4ccccc4)nn3-c3ccc(-c4ccccc4)cn3)CC[C@H]12` [T97], the IC50 was found to be 107 nM in experiment [1] and 38 nM in the experiment on IL-17A. The EC (2-fold) in experiment [2] was 0.597 µM.

Turning to `C[C@H]1C(=O)C(C#N)=C[C@@]2(C)c3c(c(-c4ccccc4)nn3-c3ccncc3)CC[C@H]12` [T7], the figures for the IC50 (in experiment [1]; in the experiment on IL-17A) were 158 nM and 170 nM, respectively. Also, in experiment [2], the EC (2-fold) was determined as 0.265 µM.

As to `Cc1noc(-c2nn(-c3ccc(-c4cccnc4)cc3)c3c2CC[C@@H]2[C@@H](C)C(=O)C(C#N)=C[C@@]32C)n1` [T109], the IC50 in experiment [1] is 89 nM; in the experiment with IL-17A it was 163 nM. In addition, the EC (2-fold) in experiment [2] worked out at 0.543 µM.

`C[C@H]1C(=O)C(C#N)=C[C@@]2(C)c3c(c(-c4ccccc4)nn3-c3ccc(-c4cccnc4)cc3)CC[C@H]12` [T37]: the IC50 in experiment [1] is 32 nM; with IL-17A, 24 nM. For the same compound, in experiment [2], the EC (2-fold) turned out to be 0.167 µM.

With `C[C@H]1C(=O)C(C#N)=C[C@@]2(C)c3c(c(-c4cccnc4)nn3-c3nc4ccccc4s3)CC[C@H]12` [T99], the IC50 in experiment [1] worked out at 449 nM; with IL-17A, 87 nM. In experiment [2], the EC (2-fold) was determined as 0.329 µM.

Take `C[C@H]1C(=O)C(C#N)=C[C@@]2(C)c3nn(-c4ccc(OC(F)(F)F)cc4)c(-c4ccccc4)c3CC[C@H]12` [T20]: the IC50 in experiment [1] is 115 nM; in the experiment with IL-17A, 94 nM. In addition, in experiment [2], the EC (2-fold) came out at 0.927 µM.

In the case of `C[C@H]1C(=O)C(C#N)=C[C@@]2(C)c3c(c(-c4cncnc4)nn3-c3ccc(-c4ccccc4)cc3)CC[C@H]12` [T70], the figures for the IC50 (in experiment [1]; in the experiment with IL-17A) were 75 nM and 58 nM, respectively. Further, in experiment [2], the EC (2-fold) is 0.472 µM.

For `C[C@H]1C(=O)C(C#N)=C[C@@]2(C)c3c(c(-c4ccncn4)nn3-c3ccc(-c4ccnc(CO)c4)cc3)CC[C@H]12` [T55], the IC50 in experiment [1] worked out at 174 nM; with IL-17A it was 149 nM. Further, the EC (2-fold) in experiment [2] was 0.609 µM.
